Measurements taken from PMC6299835 (Toxicon : official journal of the International Society on …, 2018).
No end group written: not given here.

Key:
[1] = test system: hMrgprX1;Mrgpr-cluster∆−/− transgenic mouse; conditions: in vivo
[2] = biological target: human MrgprX1 (hMrgprX1) (Homo sapiens, UniProt Q96LB2); test: cell-based; format: cell-based
Sequence of human MrgprX1 (hMrgprX1) (Q96LB2 whole entry, looked up): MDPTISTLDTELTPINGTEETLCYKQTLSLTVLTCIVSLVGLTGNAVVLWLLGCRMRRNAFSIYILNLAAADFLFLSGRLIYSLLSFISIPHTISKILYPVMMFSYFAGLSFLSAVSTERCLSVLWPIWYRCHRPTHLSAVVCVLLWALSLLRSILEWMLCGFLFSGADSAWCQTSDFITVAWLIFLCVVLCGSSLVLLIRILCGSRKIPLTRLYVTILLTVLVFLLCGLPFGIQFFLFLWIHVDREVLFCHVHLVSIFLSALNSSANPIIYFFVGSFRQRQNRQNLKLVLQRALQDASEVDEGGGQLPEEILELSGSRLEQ

Row | Substance | Itch-related scratching after intradermal cheek injection of peptide [1] | Activation of hMrgprX1 [2] | EC50 [2] | Potency in activating hMrgprX1 relative to CNF-Vc1 [2]
1 | HSGILLAWSGPRNRFVRI-NH2 [CNF-Tx2] | induces significant scratching | activates | 540 nM | at least threefold more potent
2 | WSGPRNRFVRF-NH2 [CNF-Vc1(7–18)] | – | can activate | – | –
